Measurements taken from patent US10751418B2, “Orally bioavailable lipid-based constructs” (SDG, Inc., priority 2007, dated 2020).
No end group written: not given here.

Assays:
Assay type in all cases: in vivo
[1] = test system: insulin deficient rats (alloxan and streptozotocin); test: Liver glycogen after oral GLP-1 in alloxan/streptozotocin treated rats; conditions: Dose GLP-1 0.01 mg/rat, 2 hours post dosing
Method: Rats were fasted overnight. Subsequently, 800 mg each of alloxan and streptozotocin were dissolved in 40 mL of PBS (pH 7, 0.01M). The fasted rats were then treated immediately with a 0.5 mL IP dose to induce insulin deficiency. The animals were then stabilized overnight with water and food. Following stabilization, the rats were fasted overnight to deplete liver glycogen.
Subsequently, the rats were administered 1.5 g glucose/kg body weight and GLP-1 in the form of a GLP-1 associated with a composition comprising approximately 62 mole percent 1,2 distearoyl-sn-glycero-3-phosphocholine, approximately 22 mole percent dihexadecyl phosphate, and approximately 16 mole percent cholesterol (“associated GLP-1”). In separate experiments, the amount of associated GLP-1 was varied. Liver glycogen was measured chemically at 2 hours post dosing.
As a control, unassociated GLP-1 was gavaged in place of associated GLP-1. In a separate control, GLP-1, in a dose similar to that orally gavaged, was injected intraperitoneally.

[2] = test system: mice made diabetic by streptozotocin and alloxan; test: Blood glucose after oral dosing via drinking water in alloxan-streptozotocin treated mice; conditions: day seven, 0.1 U/ml in drinking water, tail-vein blood
Excerpt: Mice used in the present experiment were made diabetic by administering streptozotocin and alloxan. The diabetic animals were then divided into two groups. The control group (11 mice) was orally dosed with regular insulin. The experimental group (7 mice) was orally dosed with a composition comprising insulin and approximately 61 mole percent 1,2 distearoyl-sn-glycero-3-phosphocholine, approximately 22 mole percent dihexadecyl phosphate, approximately 16 mole percent cholesterol, and approximately 1 mole percent poly[Cr-bis(N-2,6-diisopropylphenylcarbamoylmethyl iminodiacetic acid)] (wherein a known portion of the phospholipid component comprised ^14C labeled phospholipid). Dosing was accomplished utilizing the water bottle dosing method described in Experiment 2.
After being made diabetic, […] in both groups were treated identically over a 7 day period and fed with plain food and plain water. Following this 7 day period, rats in the control group were treated for an additional 7 day experimental period with food and regular insulin in the available drinking water at 0.1 U/ml. Over the same 7 day experimental period, the experimental group was fed regular food with the composition of the invention available in the drinking water at 0.1 U/ml. At the end of each 7-day period, blood glucose was measured in a tail-vein sample of blood by a Beckman Blood Glucose Analyzer.

normal, fasted rats = test: Blood calcium levels after calcitonin administration; conditions: subcutaneous injection, control rats
Method: Normal, fasted, control rats were given a dose of salmon calcitonin via subcutaneous injection such that an initial 10% reduction in blood calcium was observed. Blood calcium levels were then measured for six hours post injection. An experimental group of rats was given the same effective dose of calcitonin by oral gavage, in the form of a composition comprising calcitonin and approximately 62 mole percent 1,2 distearoyl-sn-glycero-3-phosphocholine, approximately 22 mole percent dihexadecyl phosphate, and approximately 16 mole percent cholesterol. Blood calcium levels were followed for six hours (FIG. 8). […] This difference was statistically significant (FIG. 8).

## GLP-1: unassociated GLP-1 peptide, gavaged or injected intraperitoneally as control (HAEGTFTSDVSSYLEGQAAKEFIAWLVKGR; ends and bridges not checked; UniProt P01275 98-127, looked up)
[1]; intraperitoneal
  Liver Glycogen: 59 ± 44 mg/g liver
[1]; oral gavage
  Liver Glycogen: 40 ± 22 mg/g liver

## regular insulin: regular insulin orally dosed to the control group in drinking water
[2]
  blood glucose: not altered at all

## salmon calcitonin
normal, fasted rats
  initial reduction in blood calcium: 10%
